# Key:
# [1] = system: Mouse macrophage cell line J774A.1; assay: Immunohistological evaluation of iNOS-positive (M1) and Arg1-positive (M2) macrophages; type: cell-based; details: for percentage of M2 macrophages (percentage of Arg1-positive cells): 72 hours; for percentage of M1 macrophages (percentage of iNOS-positive cells): 24 hours
# Method: Mouse macrophage cell line J774A.1 (JCRB9108) was purchased from JCRB Cell Bank (Laboratory of Cell Cultures), Osaka, Japan. Cells were cultured in DMEM containing 10% FBS and 1% penicillin/streptomycin.
# The J774A.1 cells (Example 5-1) were seeded on a dish having a diameter of 6 cm. After 4 days, cells were fixed with 4% PFA for 20 minutes. Blocking was performed for 30 minutes, and the cells were allowed to react with primary antibodies at 4° C. overnight. The cells were further allowed to react with a secondary antibody at room temperature for 1 hour so that the nuclei were labeled with DAPI. To detect the M1 marker iNOS, LPS (100 ng/ml) and methylcobalamin were added at 24 hours before fixing the cells. To detect the M2 marker Arg1, IL-4 (20 ng/ml) and methylcobalamin were added at 72 hours before fixing the cells.
# The primary antibodies used were a rabbit anti-iNOS monoclonal antibody (Abeam) and a rabbit anti-Arg1 polyclonal antibody (Santa Cruz). The secondary antibody used was an Alexa 488-labeled goat anti-rabbit IgG antibody (Life Technologies) or an Alexa 568-labeled goat anti-rabbit IgG antibody (Life Technologies).
# [2] = system: rat spinal cord injury model; assay: Immunofluorescent staining of macrophages (M1, M2, M1/M2 ratio) in rat spinal cord injury model; type: in vivo; parameters: Number of macrophages: unit: /mm2
# Method: Six-week-old female Wistar rats were used. The rats were purchased from Charles River Laboratories Japan, Inc. (Yokohama, Japan). Anesthesia was performed as follows. A 1:10 dilution of a mixture of three anesthetic agents in physiological saline was administered by intraperitoneal injection. One dose consisted of 0.2 mg/kg of midazolam, 0.015 mg/kg of medetomidine, and 0.25 mg/kg of butorphanol. The rat was placed in a prone position on an operating table, and a dorsal midline incision was made. The T10 vertebral arch was removed to expose the posterior face of the spinal cord, and the left spinal cord was hemisected using a sharp-pointed surgical scalpel (spitz mess). The skin was sutured using a 4-0 nylon thread and the surgery was completed. A comparison was made among three groups: a methylcobalamin treatment group, an untreated group, and a sham group. Immediately after the surgical operation, an osmotic minipump filled with methylcobalamin (1 mg/kg/day) or physiological saline was placed for the methylcobalamin treatment group and the untreated group, respectively, and left in the left dorsal subcutaneous space. The sham group underwent only resection of the Th10 vertebral arch.
# The rat spinal cord injury model of Example 9-1 was used. At 7, 14, and 28 days after the surgery, the rats were anesthetized with an anesthetic agent, and perfusion fixation was performed with 4% PFA. Then, the spinal cord including the injury site was collected and fixed with 20% sucrose for 24 hours, and the fixed spinal cord was freeze-embedded. The embedded tissue was sliced into a 5-μm-thick slice in a nerve short-axis direction and placed on a glass slide. The slice was dried for 1 hour and fixed with 100% methanol for 30 minutes. The fixed slices were blocked, and cells were allowed to react with primary antibodies at 4° C. overnight. The cells were further allowed to react with a secondary antibody at room temperature for 1 hour so that the nuclei were labeled with DAPI.
# Using transverse spinal cord sections on the affected side at 2 and 1 mm on the head side and at 1 and 2 mm on the tail side from the injury site, the number of macrophages, the number of M1 (pro-inflammatory type) macrophages, the proportion of M1 macrophages, the number of M2 (anti-inflammatory type) macrophages, and the proportion of M2 macrophage per unit area, as well as the M1/M2 ratio were measured and calculated.
# The primary antibodies used were an anti-CD68 antibody, an anti-iNOS antibody, and an anti-Arg1 antibody. The secondary antibodies used were an Alexa 488-labeled goat anti-rabbit IgG antibody and an Alexa 568-labeled goat anti-mouse IgG antibody.
# [3] = 7, 14 and 28 days after the surgery, 1 mg/kg/day
# [4] = Table 16 (FIG. 16; day not given), 1 mm on the head side
# [5] = Table 16 (FIG. 16; day not given), 1 mm on the tail side
# [6] = Table 16 (FIG. 16; day not given), 2 mm on the head side
# [7] = Table 16 (FIG. 16; day not given), 2 mm on the tail side
# [8] = Table 17 (FIG. 17; day not given), 1 mm on the head side
# [9] = Table 17 (FIG. 17; day not given), 1 mm on the tail side
# [10] = Table 17 (FIG. 17; day not given), 2 mm on the head side
# [11] = Table 17 (FIG. 17; day not given), 2 mm on the tail side
# [12] = Table 18 (FIG. 18; day not given), 1 mm on the head side
# [13] = Table 18 (FIG. 18; day not given), 1 mm on the tail side
# [14] = Table 18 (FIG. 18; day not given), 2 mm on the head side
# [15] = Table 18 (FIG. 18; day not given), 2 mm on the tail side
structure (smiles),measurement,setting,value
"C/C1=C2/[N-][C@H]([C@H](CC(N)=O)[C@@]2(C)CCC(=O)NC[C@@H](C)OP(=O)([O-])O[C@H]2[C@@H](O)[C@@H](n3cnc4cc(C)c(C)cc43)O[C@@H]2CO)[C@]2(C)N=C(/C(C)=C3N=C(/C=C4N=C1[C@@H](CCC(N)=O)C\4(C)C)[C@@H](CCC(N)=O)[C@]\3(C)CC(N)=O)[C@@H](CCC(N)=O)[C@]2(C)CC(N)=O.[CH3-].[Co+3] [MeCbl, methylcobalamin]",percentage of M2 macrophages (percentage of Arg1-positive cells),[1]; IL-4 20 ng/ml + MeCbl 1 nM,10.90%
same,percentage of M2 macrophages (percentage of Arg1-positive cells),[1]; IL-4 20 ng/ml + MeCbl 10 nM,18.57%
same,percentage of M2 macrophages (percentage of Arg1-positive cells),[1]; IL-4 20 ng/ml + MeCbl 100 nM,18.95%
same,percentage of M2 macrophages (percentage of Arg1-positive cells),[1]; IL-4 20 ng/ml + MeCbl 1 μM,19.32%
same,percentage of M2 macrophages (percentage of Arg1-positive cells),[1]; IL-4 20 ng/ml + MeCbl 10 μM,15.24%
same,percentage of M2 macrophages (percentage of Arg1-positive cells),[1]; IL-4 20 ng/ml + MeCbl 100 μM,10.61%
same,percentage of M2 macrophages (percentage of Arg1-positive cells),[1]; IL-4 20 ng/ml + MeCbl 1 mM,9.49%
same,proportion of cells positive for the M2 marker Arg1 as compared to IL-4 alone,[1]; IL-4 + 10 nM to 1 μM methylcobalamin,significantly increased
same,percentage of M1 macrophages (percentage of iNOS-positive cells),[1]; LPS 100 ng/ml + MeCbl 1 nM,16.64%
same,percentage of M1 macrophages (percentage of iNOS-positive cells),[1]; LPS 100 ng/ml + MeCbl 10 nM,9.57%
same,percentage of M1 macrophages (percentage of iNOS-positive cells),[1]; LPS 100 ng/ml + MeCbl 100 nM,7.26%
same,percentage of M1 macrophages (percentage of iNOS-positive cells),[1]; LPS 100 ng/ml + MeCbl 1 μM,3.42%
same,percentage of M1 macrophages (percentage of iNOS-positive cells),[1]; LPS 100 ng/ml + MeCbl 10 μM,11.45%
same,percentage of M1 macrophages (percentage of iNOS-positive cells),[1]; LPS 100 ng/ml + MeCbl 100 μM,10.34%
same,percentage of M1 macrophages (percentage of iNOS-positive cells),[1]; LPS 100 ng/ml + MeCbl 1 mM,17.57%
same,proportion of cells positive for the M1 marker iNOS as compared with LPS alone,[1]; LPS + 10 nM to 100 μM methylcobalamin,significantly decreased
same,methylcobalamin concentration at peak of switch from M1 to M2,[1]; immunofluorescent staining,around 100 nM
same,M1 macrophages as compared with the untreated group,[2]; [3],trends for decreased M1 macrophages
same,M2 macrophages as compared with the untreated group,[2]; [3],increased M2 macrophages
same,number of accumulated macrophages per unit area as compared with the untreated group,[2]; [3],trends for a smaller number
same,M1/M2,"[2]; 7 days after a surgery, 1 mm on the head side",0.5722
same,M1/M2,"[2]; 7 days after a surgery, 1 mm on the tail side",0.602
same,M1/M2,"[2]; 7 days after a surgery, 2 mm on the head side",0.8156
same,M1/M2,"[2]; 7 days after a surgery, 2 mm on the tail side",0.9337
same,M1/M2,"[2]; 14 days after a surgery, 1 mm on the head side",0.993
same,M1/M2,"[2]; 14 days after a surgery, 1 mm on the tail side",0.9409
same,M1/M2,"[2]; 14 days after a surgery, 2 mm on the head side",0.9106
same,M1/M2,"[2]; 14 days after a surgery, 2 mm on the tail side",0.8605
same,M1/M2,"[2]; 28 days after a surgery, 1 mm on the head side",2.457
same,M1/M2,"[2]; 28 days after a surgery, 1 mm on the tail side",4.3
same,M1/M2,"[2]; 28 days after a surgery, 2 mm on the head side",3.355
same,M1/M2,"[2]; 28 days after a surgery, 2 mm on the tail side",3.545
same,M1 macropage ratio,[2]; [4],0.131
same,Number of M1 macrophages/mm2,[2]; [4],37.00 /mm2
same,Number of M2 macrophages/mm2,[2]; [4],63.85 /mm2
same,Number of macrophages,[2]; [4],268.62
same,M1 macropage ratio,[2]; [5],0.129
same,Number of M1 macrophages/mm2,[2]; [5],43.07 /mm2
same,Number of M2 macrophages/mm2,[2]; [5],76.13 /mm2
same,Number of macrophages,[2]; [5],348.57
same,M1 macropage ratio,[2]; [6],0.143
same,Number of M1 macrophages/mm2,[2]; [6],20.43 /mm2
same,Number of M2 macrophages/mm2,[2]; [6],25.87 /mm2
same,Number of macrophages,[2]; [6],143.68
same,M1 macropage ratio,[2]; [7],0.170
same,Number of M1 macrophages/mm2,[2]; [7],27.02 /mm2
same,Number of M2 macrophages/mm2,[2]; [7],28.76 /mm2
same,Number of macrophages,[2]; [7],155.09
same,M1 macrophage ratio,[2]; [8],0.122
same,M2 macrophage ratio,[2]; [8],0.130
same,Number of M1 macropages/mm2,[2]; [8],48.35 /mm2
same,Number of M2 macrophages/mm2,[2]; [8],47.90 /mm2
same,Number of macrophages,[2]; [8],362.17
same,M1 macrophage ratio,[2]; [9],0.102
same,M2 macrophage ratio,[2]; [9],0.112
same,Number of M1 macropages/mm2,[2]; [9],43.74 /mm2
same,Number of M2 macrophages/mm2,[2]; [9],43.12 /mm2
same,Number of macrophages,[2]; [9],395.70
same,M1 macrophage ratio,[2]; [10],0.103
same,M2 macrophage ratio,[2]; [10],0.146
same,Number of M1 macropages/mm2,[2]; [10],28.35 /mm2
same,Number of M2 macrophages/mm2,[2]; [10],36.37 /mm2
same,Number of macrophages,[2]; [10],271.15
same,M1 macrophage ratio,[2]; [11],0.094
same,M2 macrophage ratio,[2]; [11],0.143
same,Number of M1 macropages/mm2,[2]; [11],25.54 /mm2
same,Number of M2 macrophages/mm2,[2]; [11],28.29 /mm2
same,Number of macrophages,[2]; [11],254.39
same,M1 macrophage ratio,[2]; [12],0.090
same,M2 macropahge ratio,[2]; [12],0.039
same,Number of M1 macrophages/mm2,[2]; [12],29.78 /mm2
same,Number of M2 macrophages/mm2,[2]; [12],12.86 /mm 2
same,Number of macrophages,[2]; [12],320.22
same,M1 macrophage ratio,[2]; [13],0.132
same,M2 macropahge ratio,[2]; [13],0.032
same,Number of M2 macrophages/mm2,[2]; [13],10.33 /mm 2
same,Number of macrophages,[2]; [13],342.11
same,Number of M1 macrophages/mm2,"[2]; Table 18 (FIG. 18; day not given), 1 mm on the tail side (last position column)",24.68 /mm2
same,Number of M1 macrophages/mm2,"[2]; Table 18 (FIG. 18; day not given), 1 mm on the tail side (third position column)",44.79 /mm2
same,M1 macrophage ratio,[2]; [14],0.089
same,M2 macropahge ratio,[2]; [14],0.032
same,Number of M1 macrophages/mm2,[2]; [14],20.16 /mm2
same,Number of M2 macrophages/mm2,[2]; [14],7.65 /mm 2
same,Number of macrophages,[2]; [14],230.75
same,M1 macrophage ratio,[2]; [15],0.095
same,M2 macropahge ratio,[2]; [15],0.032
same,Number of M2 macrophages/mm2,[2]; [15],7.42 /mm 2
same,Number of macrophages,[2]; [15],246.52
